Assay [1] addresses Matrix protein 2 (Influenza A virus) (UniProt P06821). The following applies: A/Udorn/72 (H3N2).
Description: Binding affinity to C-terminal amidated influenza A virus A/Udorn/72 (H3N2) M2 transmembrane domain (22 to 46 residues) in DPC micelles at pH 8 assessed as change in enthalpy by ITC analysis
Assay [2] shares this target. The following applies: A/Udorn/72 (H3N2). The source holds these as a separate data set.
Description: Binding affinity to C-terminal amidated influenza A virus A/Udorn/72 (H3N2) M2 transmembrane domain (22 to 46 residues) in DPC micelles at pH 8 assessed as gibbs free energy change by ITC analysis
The target is the same in assay [3]. In words: Inhibition of full length influenza A virus A/Udorn/72 (H3N2) M2 expressed in Xenopus laevis oocytes assessed as inhibition of channel current at 100 uM measured after 5 mins by two-electrode voltage clamp assay relative to control. It counts as cell-based. The conditions noted are these: Oocyte. A general note: Two-electrode voltage clamp holds a large cell at a set potential and records current.

For assay [4] the target is unchanged. In words: Inhibition of full length influenza A virus A/Udorn/72 (H3N2) M2 expressed in Xenopus laevis oocytes assessed as inhibition of channel current at 100 uM measured after 2 mins by two-electrode voltage clamp assay relative to control. It counts as cell-based. The conditions noted are these: Oocyte.
For assay [5] the target is unchanged. In words: Binding affinity to C-terminal amidated influenza A virus A/Udorn/72 (H3N2) M2 transmembrane domain (22 to 46 residues) in DPC micelles at pH 8 assessed as change in entropy by ITC analysis.
A further assay concerns Influenza A virus. In words: Antiviral activity against amantadine-sensitive influenza A virus A/Udorn/72 (H3N2) infected in MDCK cells assessed as inhibition of virus-induced cytopathic effect incubated for 48 hrs by crystal violet/neutral red staining based assay. In kind it is functional, organism-based. (In general: Damage to the host cells serves as the signal in cytopathic effect assays.)

In another assay the target is Matrix protein 2 (Influenza A virus, UniProt P06821).

Experimental findings from ChEMBL document CHEMBL5260804 (ACS Med Chem Lett, 2017) are described below.

Sequence of Matrix protein 2 (Influenza A virus) (P06821 whole entry): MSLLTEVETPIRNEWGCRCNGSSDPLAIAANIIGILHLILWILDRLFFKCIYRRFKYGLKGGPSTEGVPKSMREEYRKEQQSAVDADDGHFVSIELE
Sequence of Matrix protein 2 (P06821 whole entry): as above

Consider `C[C@@H](N)C12CC3CC(CC(C3)C1)C2`, for which the deltaH in assay [1] was -7.54 kcal/mol. Also, the deltaG in assay [2] was -8.97 kcal/mol. Also, the inhibition in assay [3] was 95%; in assay [4] it was 93%. Moreover, in assay [5], the -TdeltaS was -1.42 kcal/mol. In the assay with Influenza A virus, the IC50 is 50 nM.

For the molecule `NC12CC3CC(CC(C3)C1)C2` [AMANTADINE], the deltaH in assay [1] was -6.66 kcal/mol. Also, the deltaG in assay [2] is -7.77 kcal/mol. The inhibition in assay [3] was found to be 95%. Moreover, the -TdeltaS in assay [5] is -1.11 kcal/mol. In addition, the IC50 in the assay on Influenza A virus came to 330 nM.

`CC(N)C12CC3CC(CC(C3)C1)C2` (racemic) [RIMANTADINE] gave a deltaH in assay [1] of -7.6 kcal/mol. Also, the inhibition in assay [3] and in assay [4] was 96% each time. The -TdeltaS in assay [5] was -1.04 kcal/mol. Besides, in the assay on Influenza A virus, the IC50 came to 50 nM.

As for `CC(C)(N)C12CC3CC(CC(C3)C1)C2`, in assay [1], the deltaH was -4.19 kcal/mol. The same molecule registered a deltaG in assay [2] of -9.3 kcal/mol. Further, the inhibition worked out at 96% in assay [3] and 90% in assay [4]. Besides, binding on Matrix protein 2 was characterised by a dissociation constant (Kd) of 130 nM. Also, the -TdeltaS in assay [5] was -5.12 kcal/mol. The IC50 in the assay on Influenza A virus worked out at 40 nM.

For `C[C@H](N)C12CC3CC(CC(C3)C1)C2`, the deltaH in assay [1] was -7.73 kcal/mol. For the same molecule, the inhibition in assay [3] was found to be 96%; in assay [4], 95%. Also, the -TdeltaS in assay [5] is -1.15 kcal/mol. The IC50 in the assay on Influenza A virus is 60 nM.

What is called inhibition is the change of the read-out against control, counted positive when it falls. What is called IC50 is the point on the concentration scale where inhibition reaches its midpoint. Usually Kd stands for the equilibrium constant for the complex coming apart. Read a high Kd as weaker binding.
